According to US20050192341A1, “Non-psychotropic cannabinoids for prevention of cognitive impairment” (priority 2002, published 2005):

Key:
Sprague Dawley rats = assay: Neuronal vacuolization and necrosis histopathology after single high dose injection in rats; assay type: in vivo, rat; conditions: for Clinical signs post-dose: study day 1, dexanabinol 50 mg/kg i.v. (undistinguishable from vehicle, transient); for Clinical signs post-dose / Average number of vacuoles / Average number of necrotic foci / Number of animals with necrotic foci: MK-801 5 mg/kg s.c.; for Average number of vacuoles / Average number of necrotic foci: males and females, all sections; for Average number of vacuoles / Number of animals with necrotic foci: dexanabinol 50 mg/kg i.v.; for Average number of necrotic foci: dexanabinol 50 mg/kg i.v. in CREMOPHOR EL:ethanol; for Number of animals with necrotic foci: cingulated gyrus, males and females combined
Excerpt: The purpose of this study was to characterize the potential of dexanabinol to protect against neuronal vacuolization and cell death in the retrosplenial and cingulated neocortex regions of the brain in Sprague Dawley rats following intravenous administration of a single high dose of […]. It has previously been reported that neuronal vacuolization and cell death are among the commonly detected adverse side effects of NMDA antagonists in rodents (Olney J. W. et al., Science 244: 1360-2, 1989).
Sprague Dawley rats (140-250 g body weight, Charles River Laboratory, Mich., USA) were maintained under controlled environmental conditions, with 12:12 hour light dark cycle, and had free access to food and water. The animals were acclimated for at least seven days prior to study day 1. Animals were randomly assigned to the following treatment groups: saline (negative control), CREMOPHOR EL®:ethanol (70:30 w/w respectively supplemented with 0.5% w/v dl-α-tocopherol and 0.01% w/v edetic acid; vehicle) and 50 mg/kg dexanabinol. For all groups the volume dosage was 10 ml/kg and the treatments were administered via bolus intravenous injection into the lateral tail vein of animals. CREMOPHOR EL®:ethanol and dexanabinol 50 mg/ml were diluted 1:10 into saline prior to injection. M-801 at a dose of 5 mg/kg administered subcutaneously at a volume dosage of 5 ml/kg was used as positive control, its vehicle being saline.
Each treatment group consisted of six males and six females, which were at first analyzed separately to assess gender influence. Clinical observations, including observations for mortality or moribundity, were recorded pretest, once daily, and when a change was noted during the twice-daily observations. Body weights were recorded pretest and predose on study day 1. Six animals per sex per group per time point were submitted for necropsy at approximately 4 and 12 hours post-dose, and 1, 3, and 7 days post-dose. At the predetermined time points, the animals were humanely euthanized via intraperitoneal injection of 100 mg/kg sodium pentobarbital to achieve deep anesthesia.
Whole body perfusion were performed using heparinized saline for approximately one minute followed by 10% neutral buffered fornalin for approximately eight to ten minutes on all animals. The calvarium was removed, leaving the brain in the cranial cavity. The heads (with the brain in the cranial cavity) or brains (removed only after 24 hours left in situ in 10% neutral buffered formalin) were placed into 10% neutral buffered formalin until further process toward pathological analysis.
The brains from all animals at all time points were processed and evaluated as follows. The brains from the 4 and 12 hours time point animals were removed and sectioned using a rat brain trimming matrix to yield two coronal sections including the posterior cingulated gyrus (retrosplenial area of the brain). All sections were embedded in glycol methacrylate, sectioned at approximately 2 microns, and stained with hematoxylin and eosin. Brains from the 1, 3 and 7 days post-dose animals were removed and sectioned to yield three coronal sections spanning the brain from the posterior cingulate gyrus and extending rostral to the level of the basal nuclei. These sections were embedded in paraffin and sectioned twice at approximately 5-8 microns, with one section stained with hematoxylin and eosin and the other with Fluoro-Jade B, which selectively stains dying neuronal cells. The slides were microscopically evaluated in a blinded fashion. No statistical analyses were performed.

Sprague-Dawley male rats [1] = assay: Four vessel occlusion (4 VO) in rats, neurological score; assay type: in vivo, rat
Excerpt: This model was used to test the ability of dexanabinol or related compounds to act as neuroprotectant when administered prior to surgery. The blood supply to the rat brain arrives via the two vertebral and two common carotid arteries. Transient occlusion of all four vessels results in global ischemia, as would occur during cardiac arrest in humans. Global ischemia results in neurological deficits, including short-term memory deficits, and a selective loss of neurons, including pyramidal cells, in the CA1 field of the hippocampus, similarly to the situation observed in MCI. The ability of compounds to reduce the neurological deficits and increase neuronal survival in this model is considered indicative of their potential in preventing brain damage related to cardiac arrest, and is also predictive for ischemic damages and MCI caused by surgery, for instance cardiac surgery performed or not under cardiopulmonary bypass. […] Transient ischemia causes irreversible injury to a few, specific populations of highly vulnerable neurons.
Sprague-Dawley male rats (180-400 g body weight, Anilab, Israel) were anesthetized using 4% halothane for induction and 1% halothane for maintenance, in a mixture of 70% N2O and 30% O2. Animals were submitted to four-vessel occlusion according to the procedure of Pulsinelli et al. (Pulsinelli W. A. et al., Stroke 10: 267, 1979) in a two-stage operation. On the first day the vertebral arteries were occluded. A midline skin incision was performed above the spinal cord behind the skull occipital bone. Muscles were separated and cut until the C1 vertebra was isolated. The alar foramina were located and the vertebral arteries were coagulated via the alar foramina. Muscles and skin were closed in two layers. On the same day, the common carotid arteries (CCA) were isolated through a central neck midline incision. A loose suture material was positioned around them and the skin was closed.
On the second day, the animals were lightly anesthetized using ether. The skin was opened and CCA were closed for 20 minutes with arterial clips. Animals were deprived of food, with free access to water, overnight between the two stages of the study. Loss of righting reflex was the principal criterion for assuring severe forebrain ischemia in the 4 VO model in the rat. Therefore, animals not showing this sign were not included in the study. […]
Animals were monitored for their general clinical appearance at predetermined time points: before vertebral occlusion; before and 5 hours after CCA occlusion; then 1, 2, and 3 days after CCA occlusion. Body weight was recorded at baseline and at each follow-up session.
The total neurological score was calculated by adding the results of all tests for each animal and the maximal score obtainable for normal animals is 16 points. […]

Sprague-Dawley male rats [2] = assay: Cognitive impairment assessment following 4 VO, Morris water maze; assay type: in vivo, rat
Method: One week after CCA occlusion, the cognitive impairment was measured using a Morris water maze apparatus. The ability of the animals to perform in this test is predictive of their learning and memory capacity. A circular metal pool 150 cm in diameter and 74 cm in height was filled with water at 25° C. to a height of 54 cm. A platform 10 cm in diameter was placed 2 cm below the water surface. The pool was divided (virtually) into 4 equal surface areas identified by arbitrary north, south, east and west coordinates. The platform was located in the middle of the southwest quadrant 25 cm from the pool rim. The swim path was monitored by video camera connected to a computer (View Point, France). […] Animals that found the hidden platform were allowed to stay on it for 30 seconds.
Animals were tested in nine consecutive trials one week following the 4 VO and the learning capacity was measured as the amount of time spent by the animal swimming before finding the hidden platform. Each trial was performed for 1 minute and there were 5 minute intervals between the trials. One day later, eight days post-occlusion, the animals were tested again in order to assess their memory.
Three groups of at least 8 animals each were tested in this study: 1) sham operated animals; 2) operated animals treated 15 minutes before CCA occlusion with HPCD vehicle; 3) operated animals treated 15 minutes before CCA occlusion with 8 mg/kg dexanabinol, prepared and injected intravenously as previously described in example 2.
The average latency time in seconds elapsed until platform localization was calculated for each treatment group as an average of three consecutive trials. […] During the first six trials dexanabinol treated animals learned similarly to vehicle treated animals.

[3] = test system: individuals suffering from severe traumatic brain injury; conditions: severe traumatic brain injury patients; not significant statistically; cited from earlier work

## C[C@]12N[C@H](Cc3ccccc31)c1ccccc12 [MK-801, reference compound]
Sprague Dawley rats
  Clinical signs post-dose: ataxia, tremors and prostration

## CCCCCCC(C)(C)c1cc(O)c2c(c1)OC(C)(C)[C@H]1CC=C(CO)C[C@H]21 [Dexanabinol, 1,1-dimethyl-(3S,4S)-7-hydroxy-Δ^6-tetrahydrocannabinol]
Sprague Dawley rats; 4 hrs post-dosing
  Average number of vacuoles: None
Sprague Dawley rats; 12 hrs post-dosing
  Average number of vacuoles: None
Sprague Dawley rats; Day 1 post-dosing
  Average number of necrotic foci: 0.5
  Number of animals with necrotic foci: 0/12
Sprague Dawley rats; Day 3 post-dosing
  Average number of necrotic foci: 0.6
  Number of animals with necrotic foci: 0/12
Sprague Dawley rats; Day 7 post-dosing
  Average number of necrotic foci: >3
  Number of animals with necrotic foci: 0/12
Sprague Dawley rats; single dose, to the first approximation
  Highest tolerated dose in rats: ~50 mg/kg
Sprague Dawley rats
  Clinical signs post-dose: prostration and decreased activity
Sprague-Dawley male rats [1]; 8 mg/kg i.v. 15 minutes before CCA occlusion
  Time to full recovery of neurological score to sham animals levels: ≤ 72 hours
Sprague-Dawley male rats [1]; 5 hours after occlusion, 8 mg/kg i.v. 15 minutes before CCA occlusion, maximal score 16 points
  Decrease in neurological score: about 4 points
Sprague-Dawley male rats [1]; 48 hours post-occlusion, 8 mg/kg i.v.
  Neurological score compared with sham operated group: not statistically different from the sham operated group
Sprague-Dawley male rats [1]; from 24 hours post-occlusion on, 8 mg/kg i.v.
  Neurological outcome compared with vehicle treated or operated untreated animals: significantly better neurological outcome
Sprague-Dawley male rats [2]; average over the ten trials measuring learning and memory, 8 mg/kg i.v., sham 34.8 seconds
  Average time to localize the hidden platform: 30.8 s
Sprague-Dawley male rats [2]; average over the ten trials, 8 mg/kg i.v., difference not statistically significant
  Time less than sham operated animals to localize the hidden platform: 4 s
Sprague-Dawley male rats [2]; day 8 post-occlusion, 8 mg/kg i.v. 15 minutes before CCA occlusion
  Reduction in average time for platform localization over vehicle treated animals (memory): ~22%
Sprague-Dawley male rats [2]; last three of nine trials, one week after 4 VO, 8 mg/kg i.v. 15 minutes before CCA occlusion
  Reduction in average time for platform localization over vehicle control group (learning): more than 42%
[3]
  Neurological outcome as assessed by the Galveston Orientation and Amnesia Test: trend existed for the dexanabinol treated patients to achieve better neurological outcome
